From patent publication US9458176B2, “Tetrahydroimidazo(1,5-D)[1,4]oxazepine derivative” (Eisai R&D Management Co., Ltd., priority 2013, dated 2016)

Target: human mGluR2 (Homo sapiens (Human), UniProt Q14416)
Test: [35S]GTPγS binding assay (Affinity to mGluR2)
Format: biochemical
Conditions: cell membrane fraction of HEK293 cells stably expressing human mGluR2, glutamic acid 10 μM
Protocol: (Preparation of Cell Membrane Fraction of HEK293 Cells Stably Expressing Human Metabotropic Glutamate Receptor 2 (mGluR2))
HEK293 cells stably expressing human mGluR2 and human glutamate transporter SLC1A3 were cultured in a Dulbecco's modified Eagle's medium with 10% fetal bovine serum (50 units/mL of penicillin, 50 μg/mL of streptomycin, 60 μg/mL of geneticin, 400 μg/mL of hygromycin B and 2 mM of glutamine) at 37° C. under 5% CO2. Confluent cell cultures were washed twice with PBS(−), and then scraped off with a cell scraper, and subjected to centrifugal separation at 4° C. and 1500 rpm for 5 minutes for collecting cells. The centrifuged sediment (cell pellet) was homogenized in a 20 mM HEPES buffer containing 10 mM EDTA (pH 7.4) by using sonicator and centrifuged at 4° C. and 1500×g for 30 minutes. The supernatant (soluble fraction) was subjected to the centrifugal separation at 4° C. and 40,000×g for 30 minutes, and thus, insoluble fraction was obtained. After additional centrifugally washing the obtained fraction with 20 mM HEPES buffer containing 10 mM EDTA (pH 7.4), the pellet was centrifugally suspended with a 20 mM HEPES buffer containing 0.1 mM EDTA, and the cell membrane fraction was obtained by the centrifugal separation at 4° C. and 40,000×g for 30 minutes. The thus obtained cell membrane fraction was suspended in a 20 mM HEPES buffer containing 0.1 mM EDTA in a protein concentration of 3 mg/mL, which was stored at −80° C.
([^35S]GTPγS Binding Assay)
The frozen cell membrane fraction prepared as described above was thawed before use, and the resultant was diluted with a buffer for a binding assay (final concentrations: 20 mM HEPES, 100 mM NaCl, 1 mM MgCl2, 3 μM GDP, 300 μg/mL saponin, 0.1% BSA). The compound of each example was added to a cell membrane fraction containing 1.8 to 3 μg/assay of membrane protein on a plate, followed by incubation at room temperature for 30 minutes. Thereafter, with glutamic acid (in a final concentration of 10 μM) added thereto, incubation was performed at room temperature for 15 minutes, and thereafter, [^35S]GTPγS (in a final concentration of 0.8 kBq) and 588 μg WGA-SPA beads were added thereto, followed by incubation at room temperature for 1 hour. After the incubation, the plate was subjected to the centrifugal separation at 2,500 rpm and room temperature, and then, membrane cell binding radioactivity was measured with a top count.
A [^35S]GTPγS binding amount obtained by performing the above-described reaction in the absence of glutamic acid was defined as nonspecific binding, and a difference from a [^35S]GTPγS binding amount obtained in the presence of glutamic acid was defined as specific binding. On the basis of ratios of inhibiting the specific binding at various concentrations of the compounds of the respective examples, inhibition curves were obtained. Concentrations of the compounds of the respective examples at which the specific [^35S]GTPγS binding amount was suppressed by 50% (IC50 values) were calculated on the basis of the inhibition curves and shown in Tables 8 and 9.

[1] = inhibition of specific [35S]GTPγS binding

human mGluR2, sequence (Q14416 19-872): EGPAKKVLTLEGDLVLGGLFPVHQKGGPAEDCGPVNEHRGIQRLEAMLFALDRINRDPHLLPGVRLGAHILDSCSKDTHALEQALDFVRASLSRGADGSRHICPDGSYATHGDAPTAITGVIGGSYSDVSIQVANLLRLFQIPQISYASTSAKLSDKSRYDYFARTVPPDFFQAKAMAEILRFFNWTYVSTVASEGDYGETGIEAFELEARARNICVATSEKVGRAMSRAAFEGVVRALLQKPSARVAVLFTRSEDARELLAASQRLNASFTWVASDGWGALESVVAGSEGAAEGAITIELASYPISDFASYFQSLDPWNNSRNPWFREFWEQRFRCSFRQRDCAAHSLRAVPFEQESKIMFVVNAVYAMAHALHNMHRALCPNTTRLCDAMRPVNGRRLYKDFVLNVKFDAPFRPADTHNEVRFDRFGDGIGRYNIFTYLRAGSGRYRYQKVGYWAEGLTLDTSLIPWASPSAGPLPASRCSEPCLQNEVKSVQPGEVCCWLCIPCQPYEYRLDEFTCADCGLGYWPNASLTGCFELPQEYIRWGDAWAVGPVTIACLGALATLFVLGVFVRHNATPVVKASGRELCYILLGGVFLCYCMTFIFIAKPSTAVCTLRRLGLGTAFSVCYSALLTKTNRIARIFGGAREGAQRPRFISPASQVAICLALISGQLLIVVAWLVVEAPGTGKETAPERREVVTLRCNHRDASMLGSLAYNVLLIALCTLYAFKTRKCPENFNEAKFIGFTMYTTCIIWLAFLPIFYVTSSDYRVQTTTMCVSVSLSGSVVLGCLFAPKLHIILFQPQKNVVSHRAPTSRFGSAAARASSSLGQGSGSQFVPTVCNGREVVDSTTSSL

Row | SMILES | IC50 [nM] | IC50 [1] [nM]
1 | Cc1cc(-c2nc(-c3ccc(OC(F)(F)F)c(Cl)c3)n3c2CCOCC3)cc(C)n1 [Example 112] | 17.9 | –
2 | Cc1cc(-c2nc(-c3ccc(OC(C)C)c(Cl)c3)n3c2CCO[C@H](CF)C3)cc(C)n1 [Example 38, (S)-3-(3-chloro-4-isopropoxyphenyl)-1-(2,6-dimethylpyridin-4-yl)-6-(fluoromethyl)-5,6,8,9-tetrahydroimidazo[1,5-d][1,4]oxazepine] | 5.4 | –
3 | Cc1cc(-c2nc(-c3ccc(F)c(C(F)(F)F)c3)n3c2CCO[C@H](CF)C3)ccn1 [Example 174] | – | 24.3
4 | Cc1cc(-c2nc(-c3ccc(OC4COC4)c(Cl)c3)n3c2CCO[C@H](C)C3)cc(C)n1 [Example 232] | – | 9.7
5 | COc1cc(-c2nc(-c3cc(C)nc(C)c3)c3n2CCOCC3)ccc1OC(F)(F)F [Example 117] | 22 | –
6 | Cc1cc(-c2nc(-c3ccc(F)c(Cl)c3)n3c2CCO[C@H](C)C3)ccn1 [Example 145] | – | 45.5
7 | Cc1cc(-c2nc(-c3ccc(OCc4ccccc4)c(F)c3)n3c2CCOCC3)cc(C)n1 [Example 49] | 11.4 | –
8 | Cc1cc(-c2nc(-c3ccc(OC(F)(F)F)c(C#N)c3)n3c2CCO[C@H](C)C3)cc(CF)n1 [Example 203] | – | 4.9
9 | Cc1cc(-c2nc(-c3ccc(Cl)c(OC(F)(F)F)c3)n3c2CCOCC3)cc(C)n1 [Example 48] | 40 | –
10 | Cc1cc(-c2nc(-c3ccc(C(F)(F)F)c(Cl)c3)n3c2CCOCC3)cc(C)n1 [Example 109] | 9.1 | –
11 | Cc1cc(-c2nc(-c3ccc(F)c(C(F)(F)F)c3)n3c2CCO[C@H](CF)C3)cc(C)n1 [Example 173] | – | 19.2
12 | Cc1cc(-c2nc(-c3ccc(F)c(OCC(F)F)c3)n3c2CCOCC3)cc(C)n1 [Example 92] | 95.8 | –
13 | Cc1cc(-c2nc(-c3ccc(F)c(C(F)(F)F)c3)n3c2CCO[C@H](C)C3)ccn1 [Example 151] | – | 26.4
14 | Cc1cc(-c2nc(-c3ccc(C(F)(F)F)c(F)c3)n3c2CCO[C@H](C)C3)ccn1 [Example 139] | 47.5 | –
15 | Cc1cc(-c2nc(-c3ccc(OC(F)(F)F)c(C#N)c3)n3c2CCO[C@H](CF)C3)ccn1 [Example 196] | – | 3.8
16 | Cc1cc(-c2nc(-c3ccc(OC(F)F)c(C)c3)n3c2CCO[C@H](CF)C3)ccn1 [Example 40, (S)-3-(4-(difluoromethoxy)-3-methylphenyl)-6-(fluoromethyl)-1-(2-methylpyridin-4-yl)-5,6,8,9-tetrahydroimidazo[1,5-d][1,4]oxazepine] | 4.7 | –
17 | Cc1cc(-c2nc(-c3ccc(OC(F)(F)F)c(C)c3)n3c2CCO[C@H](CF)C3)ccn1 [Example 162] | – | 5
18 | CCOc1cc(-c2nc(-c3cc(C)nc(C)c3)c3n2CCOCC3)ccc1CC [Example 213] | – | 10.7
19 | Cc1cc(-c2nc(-c3ccc(F)c(OCC(F)(F)F)c3)n3c2CCOCC3)cc(C)n1 [Example 93] | 28.7 | –
20 | Cc1cc(-c2nc(-c3ccc(OCC(F)(F)F)c(F)c3)n3c2CCOCC3)cc(C)n1 [Example 2, 1-(2,6-dimethylpyridin-4-yl)-3-(3-fluoro-4-(2,2,2-trifluoroethoxy)phenyl)-5,6,8,9-tetrahydroimidazo[1,5-d][1,4]oxazepine] | 97.4 | –
21 | Cc1cc(-c2nc(-c3ccc(Cl)c(F)c3)n3c2CCOCC3)cc(C)n1 [Example 105] | 92.1 | –
22 | Cc1cc(-c2nc(-c3ccc(Cl)c(C(F)(F)F)c3)n3c2CCOCC3)cc(C)n1 [Example 108] | 19.2 | –
23 | Cc1cc(-c2nc(-c3ccc(OC(F)(F)F)c(F)c3)n3c2CCO[C@H](CF)C3)cc(CF)n1 [Example 202] | – | 14
24 | C[C@@H]1Cn2c(-c3ccc(OC(F)(F)F)cc3)nc(-c3ccnc(CF)c3)c2CCO1 [Example 85] | 29.7 | –
25 | Cc1cc(-c2nc(-c3ccc(Cl)c(C(F)(F)F)c3)n3c2CCO[C@H](C)C3)ccn1 [Example 152] | – | 14.5
26 | Cc1cc(-c2nc(-c3ccc(Cl)cc3)n3c2CCO[C@H](C)C3)cc(C)n1 [Example 61] | 21.7 | –
27 | Cc1cc(-c2nc(-c3ccc(Cl)c(C(F)F)c3)n3c2CCOCC3)cc(C)n1 [Example 125] | 16.5 | –
28 | Cc1cc(-c2nc(-c3ccc(F)c(OC(F)(F)F)c3)n3c2CCOCC3)cc(C)n1 [Example 45] | 73.9 | –
29 | Cc1cc(-c2nc(-c3ccc(OC(F)(F)F)c(F)c3)n3c2CCO[C@H](C)C3)cc(CF)n1 [Example 206] | – | 18.7
30 | Cc1cc(-c2nc(-c3ccc(OC(F)(F)F)c(C)c3)n3c2CCO[C@H](CF)C3)cc(C)n1 [Example 161] | – | 4

Continued, values first:

Row | IC50 [nM] | IC50 [1] [nM] | SMILES
31 | 27.8 | – | Cc1cc(-c2nc(-c3ccc(C(F)(F)F)c(F)c3)n3c2CCO[C@H](C)C3)cc(C)n1 [Example 134]
32 | – | 29.4 | Cc1cc(-c2nc(-c3ccc(OC(F)F)c(C)c3)n3c2CCO[C@H](C)C3)cc(CO)n1 [Example 177]
33 | – | 4.7 | COc1ccc(-c2nc(-c3cc(C)nc(CF)c3)c3n2C[C@@H](C)OCC3)cc1OC(F)(F)F [Example 210]
34 | – | 9 | COc1cc(-c2nc(-c3cc(C)nc(C(F)F)c3)c3n2C[C@@H](CF)OCC3)ccc1OC(F)F [Example 193]
35 | 119 | – | COc1ccc(-c2nc(-c3ccnc(C)c3)c3n2C[C@@H](C)OCC3)cc1F [Example 60]
36 | – | 13.6 | Cc1cc(-c2nc(-c3ccc(F)c(C(F)(F)F)c3)n3c2CCO[C@H](C)C3)cc(C)n1 [Example 143]
37 | – | 82 | Cc1cc(-c2nc(-c3ccc(C)c(OCC4CCOCC4)c3)n3c2CCO[C@H](C)C3)cc(C)n1 [Example 228]
38 | – | 2.4 | Cc1cc(-c2nc(-c3ccc(OC(C)C)c(C)c3)n3c2CCO[C@H](C)C3)cc(C)n1 [Example 242]
39 | 5.7 | – | COc1cc(-c2nc(-c3cc(C)nc(CF)c3)c3n2C[C@@H](C)OCC3)ccc1Cl [Example 13, (R)-3-(4-chloro-3-methoxyphenyl)-1-(2-(fluoromethyl)-6-methylpyridin-4-yl)-6-methyl-5,6,8,9-tetrahydroimidazo[1,5-d][1,4]oxazepine]
40 | 6.3 | – | COc1cc(-c2nc(-c3cc(C)nc(C(F)F)c3)c3n2C[C@@H](C)OCC3)ccc1C [Example 80]
41 | 5 | – | COc1ccc(-c2nc(-c3cc(C)nc(C)c3)c3n2C[C@@H](C)OCC3)cc1Cl [Example 33, (R)-3-(3-chloro-4-methoxyphenyl)-1-(2,6-dimethylpyridin-4-yl)-6-methyl-5,6,8,9-tetrahydroimidazo[1,5-d][1,4]oxazepine]
42 | – | 18.9 | COc1cc(-c2nc(-c3ccnc(C)c3)c3n2C[C@@H](C)OCC3)ccc1OC(F)F [Example 149]
43 | – | 3.9 | CCOc1cc(-c2nc(-c3cc(C)nc(C)c3)c3n2C[C@@H](C)OCC3)ccc1C [Example 225]
44 | 7.4 | – | Cc1cc(-c2nc(-c3ccc(OC(F)F)c(C)c3)n3c2CCO[C@H](C)C3)ccn1 [Example 15, (R)-3-(4-(difluoromethoxy)-3-methylphenyl)-6-methyl-1-(2-methylpyridin-4-yl)-5,6,8,9-tetrahydroimidazo[1,5-d][1,4]oxazepine]
45 | 12.3 | – | COc1ccc(-c2nc(-c3cc(C)nc(C)c3)c3n2C[C@@H](C)OCC3)cc1C [Example 18, (R)-1-(2,6-dimethylpyridin-4-yl)-3-(4-methoxy-3-methylphenyl)-6-methyl-5,6,8,9-tetrahydroimidazo[1,5-d][1,4]oxazepine]
46 | 37.7 | – | Cc1cc(-c2nc(-c3cccc(Cl)c3)n3c2CCO[C@H](C)C3)cc(C)n1 [Example 62]
47 | – | 4.2 | Cc1cc(-c2nc(-c3ccc(OC(F)(F)F)c(C#N)c3)n3c2CCO[C@H](C)C3)cc(C)n1 [Example 168]
48 | 2.8 | – | CCOc1ccc(-c2nc(-c3cc(C)nc(C)c3)c3n2C[C@@H](C)OCC3)cc1Cl [Example 34, (R)-3-(3-chloro-4-ethoxyphenyl)-1-(2,6-dimethylpyridin-4-yl)-6-methyl-5,6,8,9-tetrahydroimidazo[1,5-d][1,4]oxazepine]
49 | 25.5 | – | Cc1cc(-c2nc(-c3ccc(Cl)c(C(F)F)c3)n3c2CCO[C@H](C)C3)cc(C)n1 [Example 131]
50 | – | 38.8 | COc1cc(-c2nc(-c3cc(C)nc(C(F)F)c3)c3n2C[C@@H](CF)OCC3)ccc1Cl [Example 176]
